Measured values published in article PMC9775191, “A Subset Screen of the Compounds Australia Scaffold Library Identifies 7-Acylaminodibenzoxazepinones as Potent and Selective Hits for Anti-Giardia Drug Discovery” (Biomedicines, 2022).

Test system: G. duodenalis BRIS/91/HEPU/1279
Assay: Primary Giardia screen at 10 µM (live-cell imaging, automated counting)
Format: cell-based, Giardia duodenalis
Conditions: 24 h
Outline: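 Percent growth versus 0.2% DMSO vehicle, background-corrected with media-only wells, is reported at 24 and 48 h from automated live-cell counts. Testing used 10 μM final in a 3% O2 atmosphere, with plate quality checked by Z' factor.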

Row | SMILES | Average % Inhibition 24h
1 | O=[N+]([O-])c1ccccc1Sc1nnnn1C1CCOCC1 [SN00782002] | 6.2%
2 | O=C(NCC1(c2ccccc2)CCOCC1)c1ccc(Br)cc1 [SN00783501] | 8.8%

Same assay, conditions: 24 h, first singlicate assay

Row | SMILES | % Inhibition n=1 24h
3 | O=[N+]([O-])c1ccccc1Sc1nnnn1C1CCOCC1 [SN00782002] | 12.3%
4 | O=C(NCC1(c2ccccc2)CCOCC1)c1ccc(Br)cc1 [SN00783501] | 16.8%

Same assay, conditions: 24 h, re-assessment

Row | SMILES | % Inhibition n=2 24h
5 | O=[N+]([O-])c1ccccc1Sc1nnnn1C1CCOCC1 [SN00782002] | 0.0%
6 | O=C(NCC1(c2ccccc2)CCOCC1)c1ccc(Br)cc1 [SN00783501] | 0.9%

Same assay, conditions: 48 h

Row | SMILES | Average % Inhibition 48h
7 | O=[N+]([O-])c1ccccc1Sc1nnnn1C1CCOCC1 [SN00782002] | 8.6%
8 | O=C(NCC1(c2ccccc2)CCOCC1)c1ccc(Br)cc1 [SN00783501] | 37.7%

Same assay, conditions: 48 h, first singlicate assay

Row | SMILES | % Inhibition n=1 48h
9 | O=C(NCC1CN2CCCC2CO1)c1ccccc1-n1cnnn1 (stereo not shown) [SN00781319] | 0.0%
10 | Cc1ccc([N+](=O)[O-])cc1NC(=O)N1CCC(n2cncn2)CC1 [SN00781334] | 0.0%
11 | O=C(Cn1c(-c2ccccn2)noc1=O)N1CCc2sccc2C1 [SN00781376] | 0.0%
12 | O=C(Cn1c(-c2ccccn2)noc1=O)C12CC3CC(CC(C3)C1)C2 [SN00781381] | 21.7%
13 | O=C(Cn1c(-c2cccnc2)noc1=O)NCC1CCCO1 (stereo not shown) [SN00781423] | 0.0%
14 | CCn1c(Cn2c(-c3cccnc3)noc2=O)nc2c(F)cccc21 [SN00781429] | 0.0%
15 | O=C(Cn1c(-c2ncccn2)noc1=O)N1CCCCC1 [SN00781438] | 1.7%
16 | Cn1ncc2c1CCCC2NC(=O)N1CCCCC(N2CCCC2)C1 (stereo not shown) [SN00781466] | 13.9%
17 | Cc1csc(C2CCN(C(=O)c3ccccc3[N+](=O)[O-])CC2)n1 [SN00781474] | 8.2%
18 | CCc1csc(C2CCCN(C(=O)c3ccc4c(c3)OCO4)C2)n1 (stereo not shown) [SN00781524] | 0.0%
19 | Cc1csc(C2CCCCN2)n1 (stereo not shown) [SN00781548] | 6.1%
20 | COCCN1CCN(c2nc(-c3ccncc3)nc3c2CCC3)CC1 [SN00781610] | 15.0%
21 | COc1ccc(-n2ccn3c(CCC(=O)Nc4cc(C)cc(C)c4)nnc3c2=O)cc1 [SN00781639] | 16.2%
22 | COCC(=O)Nc1ccc(NC(=O)c2cc3nc(C)ccc3o2)cc1 [SN00781689] | 14.1%
23 | CN(C)C(=O)Cc1nc(CN2CCc3c(ncn3C)C2)cs1 [SN00781984] | 0.0%
24 | Cn1cnc2c1CCN(Cc1csc(-c3ccco3)n1)C2 [SN00781992] | 24.5%
25 | O=[N+]([O-])c1ccccc1Sc1nnnn1C1CCOCC1 [SN00782002] | 15.2%
26 | NCC1CN(C2CC2)CCO1 (stereo not shown) [SN00782004] | 23.7%
27 | CCOc1cc(F)ccc1NC(=O)N1CCCC(N2CCCC2=O)C1 (stereo not shown) [SN00782090] | 7.0%
28 | Cc1ncc(C(=O)NC2C3CCCOC3C2(C)C)s1 (stereo not shown) [SN00782098] | 9.0%
29 | CC1(C)C(NC(=O)Nc2ccc([N+](=O)[O-])cc2)C2CCCOC21 (stereo not shown) [SN00782105] | 16.3%
30 | Cc1cc(C)n(Cc2ccc(C(=O)N3CCN(Cc4n[nH]c(C)n4)CC3)cc2)n1 [SN00782137] | 1.5%
31 | COc1ccc(C(NC(=O)CN2CCN(Cc3n[nH]c(C)n3)CC2)C(C)C)cc1 (stereo not shown) [SN00782152] | 0.6%
32 | CCn1cc(C2OCCC2CNC/C=C/c2ccccc2OC)cn1 (stereo not shown) [SN00782244] | 28.6%
33 | CC(C)(C)OC(=O)N1CCN(S(=O)(=O)C2CN(C(=O)C3(CN)CCC3)C2)CC1 [SN00782268] | 1.1%

Row | SMILES | % Inhibition n=1 48h
34 | O=C(CCc1cnn(-c2ccccc2)c1)Nc1cc(C2CCOCC2)[nH]n1 [SN00782289] | 8.0%
35 | Cc1cccc(-c2noc(Cn3cccn3)n2)c1 [SN00782358] | 0.0%
36 | COc1ccc(CNC(=O)N2CCN(C)CC2c2ccccc2)cn1 (stereo not shown) [SN00782363] | 0.0%
37 | CCCCn1nnnc1CN1CCCC1Cn1cncn1 (stereo not shown) [SN00782373] | 0.0%
38 | CCn1cc(CN2CCCN(C(=O)C(C)n3cncn3)CC2)cn1 (stereo not shown) [SN00782395] | 0.0%
39 | CCc1nnsc1C(=O)N1CCCN(Cc2ccccc2F)CC1 [SN00782451] | 0.0%
40 | CCc1nnsc1C(=O)N1CCCN(Cc2cnn(CC)c2)CC1 [SN00782455] | 0.0%
41 | Cc1cc(C(=O)N2CCCN(Cc3cnn(C)c3)CC2)on1 [SN00782463] | 0.0%
42 | Cn1ncc2c(N3CCCN(C4CC4)CC3)ncnc21 [SN00782468] | 9.8%
43 | CCN1CCCN(c2ncnc3c2c(Br)nn3C)CC1 [SN00782469] | 4.4%
44 | Cc1ccccc1OCC(=O)N1CCN(Cc2nnc3n2CCCCC3)CC1 [SN00782472] | 0.5%
45 | OC(CN1CCCN(C2CC2)CC1)c1ccccc1C(F)(F)F (stereo not shown) [SN00782563] | 5.9%
46 | COCCS(=O)(=O)N1CCCC1Cn1ccnc1 (stereo not shown) [SN00782604] | 0.0%
47 | Cc1cc(C2CCCN(C(=O)CCc3cnn(C)c3)C2)n[nH]1 (stereo not shown) [SN00782611] | 7.8%
48 | Cc1nsc(N2CCCN(C(=O)NCc3ccccc3C)CC2)n1 [SN00782653] | 0.0%
49 | CCc1nnc2n1CCN(Cc1csc(-c3ccsc3)n1)C2 [SN00782656] | 24.2%
50 | CCCCS(=O)(=O)N1CCC2(CC1)CC2c1nc(-c2cccc(Cl)c2)no1 (stereo not shown) [SN00782685] | 0.0%
51 | CCC(OC1CCCC1)C(=O)N1CCN(c2nccn2C)CC1 (stereo not shown) [SN00782691] | 0.0%
52 | COc1cccc(C2(C)NC(=O)N(Cc3csc(-c4ccccc4)n3)C2=O)c1 (stereo not shown) [SN00782700] | 0.0%
53 | O=C1CC(C(=O)N2CCCCC2Cn2cccn2)CN1C1CCCC1 (stereo not shown) [SN00782719] | 0.0%
54 | Cc1ccccc1C1CCN(C(=O)C2CCCC2)C1 (stereo not shown) [SN00782733] | 7.3%
55 | Cc1cnn(CC(C)NCc2nc(-c3ccccn3)no2)c1 (stereo not shown) [SN00782812] | 19.9%
56 | COCCN1CCCN(C(=O)C2CCCN(S(C)(=O)=O)C2)CC1 (stereo not shown) [SN00782901] | 15.1%
57 | COc1ccc(CCC(=O)N2CCCN(C(=O)c3cc(-c4cccc(Cl)c4)on3)CC2)cc1 [SN00782943] | 0.0%
58 | CC1(C(=O)N2CCCC(CN3CCOCC3)C2)CC1(Cl)Cl (stereo not shown) [SN00782980] | 14.3%

Row | SMILES | % Inhibition n=1 48h
59 | CC(C)(C)NC(=O)CCN1CCc2[nH]nc(C(F)(F)F)c2C1 [SN00783032] | 9.6%
60 | C=C(C)CN1Cc2ccccc2CC1c1nnc(CC)o1 (stereo not shown) [SN00783147] | 0.0%
61 | Cc1nnc(C2Cc3ccccc3CN2CCOc2ccc(F)cc2)o1 (stereo not shown) [SN00783149] | 0.0%
62 | CN1CCN(CC2CCN(C(=O)Cc3cccc4ccccc34)CC2)CC1 [SN00783181] | 17.7%
63 | CCC(C)(NCc1ncc(-c2cccs2)o1)c1nccs1 (stereo not shown) [SN00783193] | 26.6%
64 | Cc1nn(C)c(C)c1CC(C)NC(=O)NCC1CN2CCCC2CO1 (stereo not shown) [SN00783221] | 15.6%
65 | O=C(Cc1ccc2c(c1)CCC2)N1CCC(n2cncn2)CC1 [SN00783222] | 6.3%
66 | O=C(Nc1cccc(C(=O)N2CCC(N3CCCC3)C2)c1)c1ccco1 (stereo not shown) [SN00783226] | 0.0%
67 | CC(=O)NCc1ccc(C(=O)N2CCCCC(N3CCCC3)C2)cc1 (stereo not shown) [SN00783239] | 4.5%
68 | COCCN1C(=O)CCC(C(=O)O)C1c1cnn(-c2ccccc2)c1 (stereo not shown) [SN00783261] | 0.0%
69 | CC(c1nnc(-c2cccs2)o1)N1CCc2cncnc2C1 (stereo not shown) [SN00783267] | 12.9%
70 | CCc1ncc2c(n1)CN(Cc1nc(-c3ccco3)oc1C)CC2 [SN00783272] | 0.0%
71 | Cc1ncccc1CNCC1CN(C2CC2)CCO1 (stereo not shown) [SN00783283] | 14.5%
72 | CS(=O)(=O)c1nccn1Cc1ccccn1 [SN00783289] | 1.6%
73 | Cc1sc(=O)n(CCC(=O)N2CCC(C)CC2c2ccco2)c1C (stereo not shown) [SN00783298] | 0.0%
74 | CC(=O)C1=C(C)NC(=O)NC1c1ccc(Cl)cc1 (stereo not shown) [SN00783317] | 2.8%
75 | NC(=O)c1nn2c(C(F)(F)F)cc(-c3ccccc3)nc2c1Br [SN00783344] | 38.7%
76 | CN(C)c1nc(N(C)C)nc(N2CC(=O)N(c3ccc(Cl)c(Cl)c3)C2=N)n1 [SN00783378] | 16.0%
77 | Cc1cc(C(F)(F)F)nn1CC(=O)Nc1cc(Oc2cccnc2)cc([N+](=O)[O-])c1 [SN00783379] | 22.1%
78 | O=C(NCC1(c2ccccc2)CCOCC1)c1ccc(Br)cc1 [SN00783501] | 61.1%
79 | CCOC(=O)c1sc2nc(C)nc(N3CCCCC3C)c2c1C (stereo not shown) [SN00783508] | 0.0%
80 | COc1cc(C(=O)NCC2(c3ccccc3)CCOCC2)cc(OC)c1OC [SN00783529] | 6.5%
81 | CC(=O)Oc1ccc(C(=O)Nc2ccc3nc(-c4ccc(Cl)cc4)oc3c2)cc1 [SN00783571] | 0.0%
82 | CC1=NN(C(=O)COc2ccc(C)c(C)c2)C(O)(C(F)(F)F)C1 (stereo not shown) [SN00783577] | 0.0%
83 | CC(NC(=O)Cn1nc(-c2ccccc2)c2ccccc2c1=O)c1ccccc1 (stereo not shown) [SN00783639] | 3.0%

Same assay, conditions: 48 h, re-assessment

Row | SMILES | % Inhibition n=2 48h
84 | O=[N+]([O-])c1ccccc1Sc1nnnn1C1CCOCC1 [SN00782002] | 2.0%
85 | O=C(NCC1(c2ccccc2)CCOCC1)c1ccc(Br)cc1 [SN00783501] | 14.4%
